According to a melting point compilation (Tetko et al.; mined from patent text by program, amines drawn as free bases though some values may be those of a salt):

For O=S(=O)(c1cc(Cl)[nH]c1-c1ccc(Cl)cc1)C(F)(F)F, which melting point is on record?
Its melting point is 109 to 112 °C.

Which melting point does the source give for FC(F)(F)c1cc(N=NNc2cc(C(F)(F)F)cc(C(F)(F)F)c2)cc(C(F)(F)F)c1 here?
Its melting point is 137 to 138 °C.

With COC(=O)CN1CCC[C@H]1C(=O)N[C@@H](Cc1ccccc1)C(=O)N1CCC[C@H]1C(=O)O as the compound, how does the melting point read?
Its melting point is 145 to 148 °C.

Which melting point does the source give for CC(=O)C1=C(O)CC(C)OC1=O (stereo not given) here?
The melting point was 96 to 98 °C.

With N#Cc1ncn2c1nc(N1CCOCC1)c1ccccc12 as the compound, how does the melting point read?
Its melting point is 225 to 228 °C.

For O=C(O)CCC/C=C\[C@@H]1C[C@@H](NS(=O)(=O)c2ccc(Cl)cc2)CN1S(=O)(=O)c1ccc(Cl)cc1, which melting point is on record?
The melting point was 111 to 113 °C.

For COc1ccc(Sc2cnnc3ccccc23)cc1, which melting point is on record?
The melting point was 163 °C.

With CCOCc1cc2cc(Br)ccc2oc1=Nc1ccc(F)cc1 as the compound, how does the melting point read?
The melting point was 153 to 154 °C.

Which melting point does the source give for COC1CCN(c2cc3c(cc2C#Cc2ccccc2)NC(=O)CC(c2cccc(C#N)c2)=N3)CC1 here?
Its melting point is 250 to 251 °C.

With COc1ccc(C2c3ccccc3C(c3ccc4c(c3)OCO4)C2c2nnn[nH]2)cc1 (stereo not given) as the compound, how does the melting point read?
Its melting point is 155 to 157 °C.

With COc1ccc(Nc2ccc(Cl)cc2C(=O)O)cc1 as the compound, how does the melting point read?
The melting point was 188 to 189 °C.

With CC(C)[C@H]1CC[C@H](C(=O)N[C@H](Cc2ccc(OCCN(C)c3ccccn3)cc2)C(=O)O)CC1 as the compound, how does the melting point read?
Its melting point is 154 to 155 °C.

With O=C(Nc1ccc2cc(CN3CCCC3)cnc2c1)c1ccc(-c2ccccc2)cc1F as the compound, how does the melting point read?
Its melting point is 166 °C.

Which melting point does the source give for NCC(=O)NCc1cc(=O)c(O)co1 here?
Its melting point is 216 to 218 °C.

Which melting point does the source give for N#Cc1ccc(Oc2ccccc2N)cc1C#N here?
Its melting point is 118 °C.

With O=C1CCC(CCN2CC=C(c3ccccc3)CC2)CC1 as the compound, how does the melting point read?
The melting point was 94 to 96 °C.

For CC1(C(=O)N2C[C@@H]3C[C@H]2C(=O)O3)CC1, which melting point is on record?
The melting point was 101 to 102 °C.

With C=CCn1cc2c(c1)-c1ccc(Cl)cc1C(c1ccccc1F)=NC2 as the compound, how does the melting point read?
The melting point was 100 to 102 °C.

For O=C(C=Cc1ccc2ccccc2c1)NCCCCCC(=O)NO, which melting point is on record?
The melting point was 161 to 163 °C.

Which melting point does the source give for COc1ccc(C=C2c3ccccc3C(=O)c3ccccc32)cc1OCC(=O)O here?
The melting point was 227 to 230 °C.

Which melting point does the source give for COc1cc(Nc2nc3cccc(-c4cccc(C)c4)c3o2)cc(OC)c1OC here?
The melting point was 153 to 155 °C.

With O=C1C=C(NC2CCN(Cc3ccccc3)CC2)CCC1 as the compound, how does the melting point read?
Its melting point is 171 to 172 °C.

Which melting point does the source give for CCn1ncc2c(NCC3CCC(C(=O)OCSC)CC3)c3ccccc3nc21 (stereo not given) here?
The melting point was 135 to 136 °C.

For CCCCCCc1ccc2c(c1)[nH]c1cc(COC(c3ccccc3)(c3ccccc3)c3ccccc3)ccc12, which melting point is on record?
Its melting point is 155 to 156 °C.

Which melting point does the source give for OC[C@@H]1Cc2cc3ccccc3n2C[C@H]1CO (relative stereo) here?
Its melting point is 162 to 163 °C.

For O=[N+]([O-])c1ccc(Oc2ccccc2)c(Cl)c1Oc1ccccc1, which melting point is on record?
Its melting point is 106 to 107 °C.

Which melting point does the source give for CC=CCNc1cc(C(=O)O)cc(S(=O)(=O)Nc2ccc(NC(C)=O)cc2)c1Nc1ccc(NC(C)=O)cc1 here?
Its melting point is 265 °C.

For COc1ccc(C2=NN(C3CCN(S(=O)(=O)c4ccc(Cl)cc4)CC3)C(=O)CC2)cc1OC, which melting point is on record?
The melting point was 185 to 186 °C.

With CCc1cc2c(cc1CC)C(=O)C(O)=CC2=O as the compound, how does the melting point read?
The melting point was 105 to 109 °C.

For COc1ccc(C(O)CN2CCNC2=O)cc1OC (stereo not given), which melting point is on record?
Its melting point is 166 °C.

Which melting point does the source give for CCCOc1ccc2[nH]c(C(=O)O)cc2c1 here?
Its melting point is 155 °C.

With S=c1nc(-c2ccc(Cl)c(Cl)c2)[nH]n1Cc1ccccc1 as the compound, how does the melting point read?
The melting point was 227 to 228 °C.

Which melting point does the source give for CC(C)CCCC(C)C1CCC2C3CC=C4CC(OCCC#CCCOC(c5ccccc5)(c5ccccc5)c5ccccc5)CCC4(C)C3CCC12C (stereo not given) here?
The melting point was 112 to 113 °C.

Which melting point does the source give for COC(=O)c1c(C)n(-c2ccccc2)c(C)c(C(=O)OC)c1=O here?
Its melting point is 215 °C.

With CN(C)c1nn(C(=O)Cl)c(=O)n1C as the compound, how does the melting point read?
Its melting point is 78 to 80 °C.

For FC(F)(F)CSc1nc2cc(Cl)ccc2[nH]1, which melting point is on record?
Its melting point is 127 to 129 °C.

For CCCCCCCCCCCCCC(=O)N[C@H](C(=O)O)C(C)C, which melting point is on record?
The melting point was 88 to 89 °C.

With CS(=O)(=O)Nc1cccc(Nc2nc(OC3CCOC3)c3nc[nH]c3n2)c1 (stereo not given) as the compound, how does the melting point read?
The melting point was 255 to 257 °C.

Which melting point does the source give for O=C1OC[C@@H](c2ccccc2)N[C@H]1Cc1ccccc1 here?
The melting point was 75 to 76 °C.

For N#CCn1cc(-c2ccccc2)c(=O)c(-c2ccccc2)c1, which melting point is on record?
The melting point was 221 to 224 °C.

Which melting point does the source give for COC(=O)CCn1c(=O)n(CCN2CCN(c3ccc(F)cc3)CC2)c(=O)c2cscc21 here?
Its melting point is 165 to 166 °C.

Which melting point does the source give for COC(=O)c1cc(Br)c(C=O)o1 here?
Its melting point is 83 to 84 °C.

Which melting point does the source give for CCc1cccc(C)c1CNc1nc(C(=O)N(C)C)cc2[nH]c(C)nc12 here?
The melting point was 207 to 208 °C.

For CC(Oc1ccccc1)C(=O)NCCO[N+](=O)[O-] (stereo not given), which melting point is on record?
The melting point was 74 to 75 °C.

Which melting point does the source give for CCc1ncnc2cc(OC)c(OCC3CO3)cc12 (stereo not given) here?
Its melting point is 120 to 122 °C.

Which melting point does the source give for O=C1NC(=O)c2c1cc1ccc3c(c1c2-c1ccc2c(c1)OCO2)OCC3 here?
The melting point was over 320 °C.

For COC(=O)Cn1cnc2c(C)c[nH]c2c1=O, which melting point is on record?
The melting point was 233 to 235 °C.

For CCOC(=O)c1cn(CCc2ccc(O)cc2)c2cc(C3CC3)nn2c1=O, which melting point is on record?
Its melting point is 95 to 100 °C.

With CCP(=O)(O)CCCN as the compound, how does the melting point read?
The melting point was 233 to 239 °C.

For Cc1c(N2CCC3(CC3N)C2)c(F)c(N)c2c(=O)c(C(=O)O)cn([C@@H]3C[C@@H]3F)c12 (stereo not given in full), which melting point is on record?
Its melting point is 118 to 120 °C.
